What was measured:
SMN complex [1] = biological target: T1, SMN complex (Homo sapiens, UniProt Q16637); experiment: Magnetic beads snRNP assembly assay in vitro with cell extracts; format: biochemical; details: for IC50: extracts of untreated cells, read-out: IC50, inhibition of the activity of the SMN complex in vitro
T1 construct: HeLa cell extracts (containing the SMN complex and all the components required for Sm core assembly); endogenous in cells; host or cells: HeLa: S3 cytoplasmic or total extracts for in vitro reactions, HeLa PV total extracts for compound-treated cells
T1 sequence (Q16637 2-294 limits assumed): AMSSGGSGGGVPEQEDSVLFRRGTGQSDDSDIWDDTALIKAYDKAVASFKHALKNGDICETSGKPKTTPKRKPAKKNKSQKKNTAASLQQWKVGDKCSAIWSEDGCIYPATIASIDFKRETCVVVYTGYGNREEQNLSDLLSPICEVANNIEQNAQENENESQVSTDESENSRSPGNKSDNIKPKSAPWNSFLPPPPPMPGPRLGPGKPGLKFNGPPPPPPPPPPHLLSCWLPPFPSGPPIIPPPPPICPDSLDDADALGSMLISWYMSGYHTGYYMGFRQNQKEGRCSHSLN
T1 sequence (O14893 whole entry partner): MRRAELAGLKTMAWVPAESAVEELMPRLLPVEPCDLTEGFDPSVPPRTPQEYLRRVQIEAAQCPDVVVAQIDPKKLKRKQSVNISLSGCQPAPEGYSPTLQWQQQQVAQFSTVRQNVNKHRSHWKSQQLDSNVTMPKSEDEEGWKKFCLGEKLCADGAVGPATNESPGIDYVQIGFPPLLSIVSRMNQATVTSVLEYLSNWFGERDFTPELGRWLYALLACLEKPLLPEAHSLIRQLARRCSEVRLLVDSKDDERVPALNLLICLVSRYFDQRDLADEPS
Procedure: (§1) Magnetic beads snRNP assembly assay was carried out in the presence of increasing amounts of H2O2. IC50 was calculated from the dose-response curve. The error bars represent SDs from 3 independent measurements. (B) Effect of menadione on the activity of the SMN complex in vitro. The same experimental procedure was carried out as in (A), except that menadione was used instead. (C) Dose-dependent effect of menadione on the activity of the SMN complex in cells. HeLa cells were treated with menadione at the indicated concentrations or with DMSO control for 1 hour. The activity of the SMN complex in extracts from various treated cells was measured in comparison to DMSO control cell extract (100% activity) by magnetic beads snRNP assembly assay. The error bars represent SDs from 3 independent measurements. (D) Extracts from (C) mixed with sample buffer without (−DTT) or with (+DTT) reducing agent were resolved by SDS-PAGE and analyzed by Western blot of the entire membrane with anti-SMN antibody 62E7. The molecular mass markers in 41 kDa are indicated on the left. “redSMN” indicates monomer SMN migrating at normal molecular mass and “oxSMN” indicates disulfide-crosslinked SMN upon oxidation. (E) β-lapachone and menadione generate ROS in live cells. HeLa cells were incubated with ROS indicator dye H2DCFDA (10 μM) or without dye as a control for 30 minutes, and then treated with the compounds at the indicated concentrations or DMSO as a control. Fluorescence images were acquired 30 minutes after the treatment.
(A) Cell extracts treated with 20 μM β-lapachone, or 20 μM β-lapachone together with 20 μM DTT, or DMSO control were analyzed by non-reducing Western blot. The relative levels of monomer SMN (“redSMN”) were calculated as the percentage of that in DMSO control and shown by the blue bar. Assembly activities of the SMN complex were measured by magnetic beads snRNP assembly assay using the same set of treated extracts and shown by the red bar. The error bar represents SDs from 3 independent experiments. (B) The sulfhydryl modifying reagent iodoacetamide inhibits the activity of the SMN complex. In vitro assembly assays were performed in the presence of various concentrations of iodoacetamide. The activity of the SMN complex in the absence of iodoacetamide was set as 100% activity, and the relative activity at each iodoacetamide concentration was calculated in comparison and graphed. The error bars represent SDs from triplicate samples.
For quantitative in vitro assembly assays on magnetic beads, cytoplasmic extracts were prepared and used for assembly on biotin-labeled snRNAs using the standard reconstitution conditions in 96-well plates. Following the reactions, Y12 antibodies immobilized onto the magnetizable Dynabeads Protein A (Dynal Biotech ASA, Oslo, Norway) in 100 μl of RSB-500 buffer ([…]) containing 2 mg/ml heparin, 0.1% NP-40, and 0.2 U/.μl RNasin Plus RNase inhibitor (Promega, Madison, Wis.) were added to each well. Immunoprecipitations in the 96-well plates were carried out with gentle mixing at 750 rpm in a Thermomixer (Eppendorf, Germany) at 30° C. for 1 hour. The plates were subsequently transferred to a Kingfisher 96 magnetic particle processor (Thermo Labsystems, Vantaa, Finland) for automatic washing of the Dynabeads in each well with wash buffer (RSB-500, 0.1% NP-40) 5 times. After the last wash, beads bound to Y12 immunoprecipitated snRNPs were then resuspended in 120 μl of wash buffer containing 0.08 μg/ml horseradish peroxidase (HRP)-conjugated NeutrAvidin.TM. (Pierce, Rockford, Ill.). Following incubation at 30° C. for 1 hour with gentle mixing, the beads in each well were again washed five times with the Kingfisher 96 magnetic particle processor, and finally resuspended in 150 μl of SuperSignal ELISA Femto Substrate Working Solution (Pierce). […]

ROS in HeLa cells = experiment: ROS detection in live HeLa cells with H2DCFDA dye; format: cell-based, human; details: for ROS generation in live cells (H2DCFDA fluorescence): 10 μM H2DCFDA, images 30 minutes after treatment
Procedure: as §1
Additional direct evidence for the ROS-generating activity of the compounds in live cells was obtained by staining cells with 2′,7′-dichlorodihydrofluorescein diacetate (H2DCFDA), a nonfluorescent dye that becomes fluorescent upon exposure to ROS. […] A significant level of ROS was apparent at 0.5 μM β-lapachone and increased proportionally with increasing b-lapachone concentrations.

SMN complex [2] = biological target: T1, SMN complex; experiment: Magnetic beads snRNP assembly assay on extracts from compound-treated HeLa cells; format: cell-based
Procedure: (§2) (B) Concentration-dependent inhibition of the activity of the SMN complex by b-lapachone in cells. HeLa cells were treated with various concentrations of β-lapachone or with DMSO (control) for 1 hour. The activity of the SMN complex in extracts from treated cells was measured using magnetic beads snRNP assembly assay and compared to that of DMSO-treated control cells (100% activity). IC50 was calculated from the dose-response graph. The error bars represent SDs from 3 independent measurements. […] Assembly reactions were performed using either cell extracts or purified native […] snRNP proteins lacking the SMN complex (Sm proteins). Both samples were adjusted to contain a similar amount of Sm proteins. Magnetic beads snRNP assembly assay were carried out with U4 or control U4DSm snRNA in the presence of either 20 or 100 μM β-lapachone or DMSO control. Sm core assembly on U4 snRNA in the presence of DMSO was considered 100% activity. The error bars represent SDs from 3 independent measurements.
In vitro transcription and labeling of RNAs was carried out using MEGAshortscript T7 transcription kit (Ambion) with the modification that 0.65 μM biotin-16-UTP (Roche) and 2.6 μM UTP were used in the reactions to produce biotinlabeled RNAs (Wan et al., 2005). Cell culture, drug treatment and preparation of cell extracts HeLa S3 cell pellets were purchased from National Cell Culture Center. Cytoplasmic extracts competent for snRNP assembly were prepared as described (Pellizzoni et al., 2002). Total cell extracts were made by resuspending cell pellets in reconstitution buffer ([…], 0.2 mM EDTA, 5% glycerol) containing 50 µg/ml digitonin (Calbiochem) and 1× Complete EDTA-free Protease Inhibitor Cocktail (Roche), followed by sonication. Nonidet P-40 (NP-40) was added to a final concentration of 0.01%, followed by centrifugation at 10,000 rpm for 15 minutes at 4° C. Glycerol was then added to the supernatant at a final concentration of 5%. For various drug treatments, two 10 cm plates of HeLa PV cells were treated with each drug at the indicated concentrations and times. Cells were harvested (˜90% confluent) and total cell extracts prepared using the aforementioned procedures. Protein concentrations of various extracts were determined using the Bradford protein assay (BioRad). All of the extracts for the same experiment were adjusted to the same final protein concentration
For quantitative in vitro assembly assays on magnetic beads, cytoplasmic extracts were prepared and used for assembly on biotin-labeled snRNAs using the standard reconstitution conditions in 96-well plates. […] The plates were transferred to a Wallac Victor2 multi-label plate reader (Perkin-Elmer, Wellesley, Mass.) for luminescence measurements at 495 nm. […]

SMN = experiment: Indirect immunofluorescence of SMN (2B1) and snRNPs (Y12) in HeLa PV cells; format: cell-based, human; details: 5 μM for 3 hours vs DMSO control
Sm proteins = test system: T2, Sm proteins; experiment: Sm core assembly from purified native snRNP proteins lacking the SMN complex; format: biochemical, human; details: U4 snRNA, 20 or 100 μM
T2 construct: Native, RNA-free total snRNP proteins (TPs) were prepared from HeLa S3 cells; endogenous in cells; host or cells: HeLa S3 cells (pellets from National Cell Culture Center); proteins purified in house by the method of Sumpter et al., 1992
Procedure: as §2
Native, RNA-free total snRNP proteins (TPs) were prepared from HeLa S3 cells (National Cell Culture Center) as described previously (Sumpter et al., 1992). […] The other half of the samples were immunoprecipitated with anti-Sm monoclonal antibody (Y12), and the immunoprecipitated RNAs were isolated and analyzed by electrophoresis on […] urea/8% polyacrylamide gels. […]

[3] = test system: transfected luciferase reporter; experiment: Transcription and translation of a transfected luciferase reporter in treated cells; format: cell-based
SMN protein = experiment: Quantitative non-reducing Western blot of SMN in extracts of treated HeLa cells; format: cell-based, human; details: 5 μM for 3 hours, prepared without DTT
Procedure: (B) HeLa total cell extracts prepared from cells treated for 3 hours with 5 μM β-lapachone or DMSO control were resolved by SDS-PAGE and analyzed by quantitative Western blotting, using JBP1 and Magoh as loading controls. The extracts were prepared and mixed with sample buffer without reducing agent. The membrane was cut into strips for the probing of each protein at the corresponding molecular mass.
For quantitative Western blot, cell extracts containing 20 g of total proteins were mixed with NuPAGE LDS sample buffer (Invitrogen) with or without reducing agent (Invitrogen), boiled for 5 minutes, and then separated on NuPAGE 4-12% Bis-Tris gels (Invitrogen) and transferred to nitrocellulose membranes. […] Mouse monoclonal antibodies, anti-SMN (62E7), anti-Gemin3 (12H12), anti-Gemin4 (17D10), anti-Gemin5 (10G11), anti-JBP1 (6G8), anti-Magoh (18G12) and anti-Sm (Y12), were used as described previously (Battle et al., 2006b; Lerner et al., 1981; Wan et al., 2005). The IRDye800 anti-mouse IgG secondary antibody (Rockland) was used at 1:5000.
To test this, extracts from b-lapachone-treated cells (at 5 μM for 3 hours) or DMSO-treated control cells were prepared in gel electrophoresis sample buffer without the reducing agent dithiothreitol (DTT) to preserve potential disulfides, resolved by SDS-PAGE, and analyzed by quantitative Western blots. […]

Question: O=C1C(=O)c2ccccc2-c2ccccc21 [9,10-phenanthrenequinone] was tested. Which “inhibition of the SMN complex / assembly in cell extracts (in words)” value (from here on “inhibition of the SMN complex / assembly”) (SMN complex [1]; in vitro) did it give?
Answer: strongly inhibit

Question: With NC(=O)CI [iodoacetamide] as the compound, how does the “inhibition of the SMN complex / assembly” value (SMN complex [1]; in vitro) read?
Answer: inhibits

Question: With CC(=O)N[C@@H](CS)C(=O)O [N-acetyl-L-cysteine] as the compound, how does the “prevention of the inhibition of b-lapachone, menadione and H2O2” value (SMN complex [1]; in vitro assembly reactions) read?
Answer: completely prevented

Question: Which results are given for CC1=CC(=O)c2ccccc2C1=O [menadione, 2-methyl-1,4-napthoquinone]?
Answer: ROS generation in live cells (H2DCFDA fluorescence) (ROS in HeLa cells): Dose-dependent fluorescence; IC50 (SMN complex [1]): 25 µM; inhibition of SMN complex activity in cells (SMN complex [2]; HeLa cells treated for 1 hour): dose-dependent inhibition

Question: With OO [H2O2, hydrogen peroxide] as the compound, how does the “IC50, inhibition of the activity of the SMN complex in vitro” value (SMN complex [1]; in vitro, value in words) read?
Answer: low millimolar range

Question: Which “prevention of the inhibitory effect of b-lapachone on SMN complex activity” value (SMN complex [1]; 20 μM b-lapachone with 20 μM DTT) does the source give for O[C@H](CS)[C@H](O)CS (racemic) [DTT, dithiothreitol] here?
Answer: completely neutralized

Question: Which “inhibition of the SMN complex / assembly” value (SMN complex [1]; in vitro) does the source give for CC1(C)CCC2=C(O1)C(=O)c1ccccc1C2=O [α-lapachone] here?
Answer: does not inhibit

Question: What does the source list for CC1(C)CCC2=C(O1)c1ccccc1C(=O)C2=O [β-lapachone, 3,4-dihydro-2,2-dimethyl-2H-naphthol[1,2-b]pyran-5,6-dione]?
Answer: ROS generation in live cells (H2DCFDA fluorescence) (ROS in HeLa cells): Dose-dependent fluorescence; concentration at which a significant level of ROS was apparent (ROS in HeLa cells; HeLa cells, H2DCFDA): 0.5 µM; SMN signal intensity or localization (SMN): no detectable difference; effect on Sm core formation from the purified snRNP proteins (Sm proteins): no effect; inhibition of transcription and translation of a transfected luciferase reporter [3]: did not significantly inhibit; decrease of intensity of the SMN band (monomer) compared to DMSO controls (SMN protein): ~60%; IC50 (SMN complex [1]): ~30 µM; inhibition of the SMN complex / assembly in cell extracts (in words) (SMN complex [1]; in vitro): inhibited assembly in the cell extracts; IC50 (SMN complex [2]; HeLa cells treated for 1 hour, read-out: IC50, inhibition of the activity of the SMN complex in treated cells): 0.45 µM; inhibition of snRNP assembly activity (SMN complex [2]; extracts from cells treated for 6 hours with subtoxic concentration): about 90%; inhibition of snRNP assembly (SMN complex [2]; within 30 minutes of treatment): > 80%

Question: With O=C1C(=O)C(Cl)=C(Cl)C(Cl)=C1Cl [tetrachloro-1,2-benzoquinone] as the compound, how does the “inhibition of the SMN complex / assembly” value (SMN complex [1]; in vitro) read?
Answer: strongly inhibit

From US20100234402A1, “METHODS AND COMPOSITIONS FOR TREATING SPINAL MUSCULAR ATROPHY” (priority 2007, published 2010)
